Biological target: T1, hCav3.2 (Homo sapiens, UniProt O95180)
T1 construct: expressed in transfected cells; host or cells: HEK-293
Experiment: PatchXpress patch clamp, voltage dependent block (half-inactivated state)
Assay type: cell-based
Description: The voltage dependence of calcium channel isoforms was determined by comparing the activity of resting (Tonic Block) and half-inactivated (Voltage Dependent Block) voltages across various concentrations of Formula (II). First, HEK-293 cells containing hCav3.1, hCav3.2, or hCav3.3 calcium channel isoforms were prepared by seeding at 2×10^6 cells per flask in culture for 2 days; the cells were then harvested at about 6×10^6 cells. Harvested cells were washed once in DPBS for approximately 30 minutes, and 1 mL of 1× (0.05%) Trypsin-EDTA was added, swirled, and allowed to sit on the cells for approximately 4 minutes. […]
Pharmacology was measured during Epoch 1. Percent inhibition was calculated as: 100*((([Step 2+Step 5]/2)−Step3)/(Step 2+Step 5/2)), wherein Step 2 is the peak current measured at baseline, Step 5 is the current measured during the wash period, and Step 3 is the peak current measured during application of the compound. […]
The effect of the compound on peak current amplitude was monitored using the voltage protocol described above and washed out after reaching steady state as determined by PatchXpress stability scripts. […] Washout current for the calculation of inhibition was determined by resetting the holding potential to the previously determined half-inactivation potential (V0.5) and measuring peak current from this holding potential. […]

T1 sequence (O95180 whole entry): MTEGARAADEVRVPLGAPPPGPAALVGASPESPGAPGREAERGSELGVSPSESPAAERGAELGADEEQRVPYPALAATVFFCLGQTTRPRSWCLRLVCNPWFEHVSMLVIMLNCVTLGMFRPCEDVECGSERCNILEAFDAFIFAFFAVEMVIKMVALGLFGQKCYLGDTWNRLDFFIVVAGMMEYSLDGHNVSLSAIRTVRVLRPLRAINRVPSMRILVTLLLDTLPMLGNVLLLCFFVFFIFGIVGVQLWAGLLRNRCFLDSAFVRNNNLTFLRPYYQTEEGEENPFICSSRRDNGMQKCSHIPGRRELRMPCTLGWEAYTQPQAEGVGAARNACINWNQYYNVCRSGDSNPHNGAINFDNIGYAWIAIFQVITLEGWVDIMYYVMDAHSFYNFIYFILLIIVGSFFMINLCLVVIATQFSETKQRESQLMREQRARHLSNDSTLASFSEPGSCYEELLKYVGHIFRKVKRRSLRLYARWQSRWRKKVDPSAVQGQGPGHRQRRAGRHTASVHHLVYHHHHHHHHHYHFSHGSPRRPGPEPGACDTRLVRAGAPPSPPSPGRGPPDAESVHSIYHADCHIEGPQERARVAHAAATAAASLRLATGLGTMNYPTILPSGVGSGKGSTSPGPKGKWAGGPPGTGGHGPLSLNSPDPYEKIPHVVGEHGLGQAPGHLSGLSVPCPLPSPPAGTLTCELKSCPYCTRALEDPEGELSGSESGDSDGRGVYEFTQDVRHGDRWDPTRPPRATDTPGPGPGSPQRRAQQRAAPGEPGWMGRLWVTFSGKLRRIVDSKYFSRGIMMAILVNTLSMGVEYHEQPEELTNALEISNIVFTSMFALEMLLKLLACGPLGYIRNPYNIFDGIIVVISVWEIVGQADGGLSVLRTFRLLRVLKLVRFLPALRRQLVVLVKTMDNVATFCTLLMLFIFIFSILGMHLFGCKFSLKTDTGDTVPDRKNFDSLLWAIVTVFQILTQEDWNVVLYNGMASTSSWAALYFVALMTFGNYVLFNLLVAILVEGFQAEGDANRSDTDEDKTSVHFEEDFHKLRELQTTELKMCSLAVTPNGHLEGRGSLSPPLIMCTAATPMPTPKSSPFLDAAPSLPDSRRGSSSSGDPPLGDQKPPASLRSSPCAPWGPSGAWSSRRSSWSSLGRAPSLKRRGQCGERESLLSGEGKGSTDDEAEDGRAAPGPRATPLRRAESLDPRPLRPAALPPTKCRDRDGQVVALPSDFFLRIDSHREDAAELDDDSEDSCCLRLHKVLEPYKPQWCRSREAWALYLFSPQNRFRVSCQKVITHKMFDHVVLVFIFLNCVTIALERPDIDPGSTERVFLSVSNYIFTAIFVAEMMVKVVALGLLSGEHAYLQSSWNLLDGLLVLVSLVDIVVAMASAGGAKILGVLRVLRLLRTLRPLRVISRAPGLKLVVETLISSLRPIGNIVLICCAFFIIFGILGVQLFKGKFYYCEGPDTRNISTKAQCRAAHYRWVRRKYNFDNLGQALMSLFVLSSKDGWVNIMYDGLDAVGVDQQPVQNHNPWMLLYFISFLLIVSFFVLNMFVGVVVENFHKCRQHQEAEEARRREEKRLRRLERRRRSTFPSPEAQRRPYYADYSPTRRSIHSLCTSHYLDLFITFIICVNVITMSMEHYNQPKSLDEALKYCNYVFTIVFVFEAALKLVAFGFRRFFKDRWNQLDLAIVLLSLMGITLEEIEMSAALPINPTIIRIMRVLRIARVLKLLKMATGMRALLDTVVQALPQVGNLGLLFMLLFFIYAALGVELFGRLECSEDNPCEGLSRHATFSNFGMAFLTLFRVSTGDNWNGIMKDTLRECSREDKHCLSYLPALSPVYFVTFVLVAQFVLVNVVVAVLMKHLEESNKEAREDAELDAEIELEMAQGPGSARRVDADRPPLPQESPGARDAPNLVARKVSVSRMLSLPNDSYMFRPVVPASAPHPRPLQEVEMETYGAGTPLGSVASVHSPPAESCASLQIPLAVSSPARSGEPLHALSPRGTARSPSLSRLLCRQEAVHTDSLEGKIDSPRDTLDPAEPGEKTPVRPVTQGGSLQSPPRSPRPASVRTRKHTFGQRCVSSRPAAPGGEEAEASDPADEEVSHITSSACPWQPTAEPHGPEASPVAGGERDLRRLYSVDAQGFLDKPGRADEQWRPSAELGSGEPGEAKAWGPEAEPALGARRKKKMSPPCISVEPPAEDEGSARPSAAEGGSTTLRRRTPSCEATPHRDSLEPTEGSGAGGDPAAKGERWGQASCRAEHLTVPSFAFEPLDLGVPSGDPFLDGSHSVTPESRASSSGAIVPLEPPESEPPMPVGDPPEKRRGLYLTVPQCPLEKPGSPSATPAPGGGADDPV

With `CC(C)(C)NC(=O)CN1CCC(CNC(=O)c2cc(F)cc(Cl)c2)CC1.Cl` [compound of formula (II), N-((1-(2-(tert-butylamino)-2-oxoethyl)piperidin-4-yl)methyl)-3-chloro-5-fluorobenzamide hydrochloride] as the compound, how does the “tonic block/voltage dependent block (TB/VDB) ratio” value read?
Its value is 2.0.
